In one assay the test system is DSS induced colitis. Kind of assay: Acute colitis induced by Dextran Sulfate Sodium (DSS). The class given is in vivo. The settings on record: mice, DSS 2%, PO 100 mg/Kg. On the procedure:
In situ gel enema formulation batch 7663 (same formulation as batch 7639) in vivo efficacy was tested in a murine model of acute colitis induced by Dextran Sulfate Sodium (DSS). This animal model is perhaps the most widely used mouse model of colitis and employs DSS, a chemical colitogen with anticoagulant properties, to induce disease which closely resembles human UC. DSS induced intestinal inflammation results in damage to the epithelial monolayer lining the large intestine allowing the dissemination of proinflammatory intestinal contents (e.g. bacteria and their products) into underlying tissue.
For this study, a group of mice was treated by enema with Batch 7663 (indicated as CB0125 in the figures) (dose 45 mg/kg), one group was treated by enema with Placebo Batch 7679 as a comparator for 7663; a group was treated by enema with Rifamycin powder dissolved in water (67 mg/kg). One group of mice was treated orally PO with 5-ASA at the dose of 100 mg/Kg; this group was introduced as positive control. 5-ASA is the golden standard therapy for inflammatory bowel diseases, including UC, distal UC and proctitis. One group was treated by enema with the vehicle (H2O) only, as negative control.
Briefly DSS (2%) was dissolved in water (w/v) and given to mice in place of normal drinking water. DSS water was provided ad libitum for 5 days and was changed daily. This period was followed by a washout period of 5 days with water only. Mice were weighed daily and monitored for clinical status including hunching, mobility, soft stool and/or diarrhoea. At end of the study mice were sacrificed by CO2 inhalation. Immediately after euthanasia, the animals were laparatomyzed and intestine was exteriorized. The entire colon was isolated from the caecum to the anus, placed unstretched on a ruler and then measured and weighed after rinsing the lumen with saline. The weight was normalized to the colon length by calculating the ratio.
For histological analysis of colon samples, about 2 cm of the middle portion of isolated colon was fixed in a 10% formalin. Each fixed fragment was embedded in paraffin. The slides were stained with haematoxylin and eosin and assessed according to the histological score.

The test system of another assay is mTOR pathway. Kind of assay: Inhibition of mTOR and S6R phosphorylation in primary colonic epithelial cells, flow cytometry. The class given is cell-based, human. The settings on record: Homo sapiens, Epithelial cell; serum stimulated primary colonic epithelial cells, 48 hr; read-out: IC50, % cells positive for anti-pmTOR and anti-pS6R relative to DMSO. The procedure: To evaluate Rifamycin activity on the mTOR pathway, primary colonic epithelial cells were serum starved for 24 hr and restimulated with serum for 48 hr to induce phosphorylation of mTOR and its downstream target protein […]. Serum stimulated cells were treated with Rifamycin SV, Rifaximin, the positive control Rapamycin, or the negative vehicle control DMSO. Cells were fixed, stained with antibodies against pmTOR and pS6R then analyzed by flow cytometry.

For orientation: IC50 means the concentration at which inhibition is half-maximal.

`Nc1ccc(O)c(C(=O)O)c1` [Batch 5-ASA, 5-aminosalycilic acid]: the histological score result with DSS induced colitis (compared to 7663) is given as “lower improvement”. In addition, the “clinical score AUC” value in the assay with DSS induced colitis (compared to batch 7663) is given as “lower efficacy”.
As for `CO[C@H]1C[C@@H]2CC[C@@H](C)[C@@](O)(O2)C(=O)C(=O)N2CCCC[C@H]2C(=O)O[C@H]([C@H](C)C[C@@H]2CC[C@@H](O)[C@H](OC)C2)CC(=O)[C@H](C)/C=C(\C)[C@@H](O)[C@@H](OC)C(=O)[C@H](C)C[C@H](C)/C=C/C=C/C=C/1C` [Rapamycin], the IC50 in the assay on mTOR pathway turned out to be 0.53 µM.
For `CO[C@H]1/C=C/O[C@@]2(C)Oc3c(C)c(O)c4c(O)c(c5c(nc6cc(C)ccn65)c4c3C2=O)NC(=O)/C(C)=C\C=C\[C@H](C)[C@H](O)[C@@H](C)[C@@H](O)[C@@H](C)[C@H](OC(C)=O)[C@@H]1C` [Rifaximin], the IC50 with mTOR pathway stood at 43 µM.

The record behind these values is patent publication US20240408008A1, “AN IN-SITU GELLING ENEMA OF RIFAMYCIN FOR TREATING POUCHITIS AND DISTAL ULCERATIVE COLITIS” (COSMO TECHNOLOGIES LTD., priority 2021, published 2024).
